Laboratory results: PMC11311842, “Radiosynthesis and Preclinical Evaluation of ^18F-Labeled Estradiol Derivatives with Different Lipophilicity for PET Imaging of Breast Cancer” (Cancers, 2024)

Assays:
[1] = system: T47D (ER+) and MDA-MB-231 (ER-) tumor-bearing nude mice; experiment: Biodistribution in tumor-bearing nude mice; format: in vivo
Method: Female NMRI nude mice (Crl:NMRI-Foxn1^nu) were purchased from Charles River (Charles River Laboratories Inc., Wilmington, MA, USA) at the age of four weeks and kept in groups of four to five animals in individually ventilated cages in a twelve hours dark/light cycle, with unlimited access to water and standard chow. At the age of nine to ten weeks, one 17β-estradiol pellet per animal (0.72 mg per pellet, 3 mm diameter) with a 60-day release time (Innovative Research of America, Sarasota, FL, USA) was subcutaneously implanted on the back under isoflurane anesthesia. After three days, approximately 2–3 × 10^6 MCF-7, T47D or MDA-MB-231 tumor cells (in 50 µL PBS) were mixed with Matrigel (50 µL, BD Biosciences, Becton, Dickinson and Company, Franklin Lakes, NJ, USA) and injected subcutaneously to the back of the mice. Tumor diameters and weight of the animals were recorded five times a week. Biodistribution or imaging studies were performed three–four weeks after the inoculation of the cells.
For biodistribution experiments, nude mice bearing T47D and MDA-MB-231 tumors (n = 3, per group) were injected with ^18F-TA-Glyco-EE (2–4 MBq) under isoflurane anesthesia. After 30, 60 or 90 min, the mice were sacrificed by cervical dislocation. Blood, as well as organs and tissue from the lung, liver, kidneys, heart, spleen, brain, muscle, femur and tumors, were harvested and measured for radioactivity in the γ-counter (Wallac Wizard, PerkinElmer, Waltham, MA, USA). The samples were weighed, and the radioactivity of each tissue sample was calculated as a percentage of the total injected dose per gram tissue (%ID/g).

ER+ MCF-7 cells = experiment: Cellular uptake assay in ER+ cells; format: cell-based, human
Method: One day prior to the experiment, MCF-7 and MDA-MB-231 cells were seeded in 24-well plates (350,000 cells/well). The cells were washed once with cell medium. The cells were incubated with the respective radiotracer in cell medium (510 µL) for 10, 20, 30, 60, 90, 120 min at 37 °C in the absence and presence of estradiol (E2, final concentration of 72 µM). After incubation, the plates were set on ice and washed with ice-cold PBS twice, following cell lysis and detachment with NaOH (0.1 M, 750 µL, 37 °C). The cells were transferred to counting tubes, and the radioactivity was measured using a γ-counter (Wallac Wizard, PerkinElmer, Waltham, MA, USA). The protein concentration of each well was determined in duplicate using Bradford reagent (Bio-Rad Laboratories GmbH, Feldkirchen, Germany). The cellular uptake assay was performed in 2–4 independent experiments, each performed in quadruplicate for each time point.

ER+ T47D tumor slices = experiment: In vitro autoradiography of T47D tumor slices; format: binding, human; conditions: 60 min, room temperature, with or without E2 (72 µM)
Method: MCF-7, MDA-MB231 and T47D tumors grown in nude mice were collected and frozen in a hexane/dry ice bath (−70 °C). Tumor slices (14 µm) were prepared on a cryostat microtome HM 500 O (Microm, Walldorf, Germany), thaw-mounted on HistoBond® adhesive glass slides (Marienfeld, Lauda-Königshofen, Germany) and stored at −80 °C. For in vitro autoradiography studies, the tumor tissue sections were thawed and pre-incubated in incubation buffer (50 mM Tris HCl, 5 mM MgCl2, 0.2% bovine serum albumin (BSA), pH 7.4) at room temperature for 15 min. Then, the sections were transferred to incubation buffer containing ^18F-TA-Glyco-EE (3–5 MBq) in a total volume of 70 mL. For the determination of non-specific binding, separate sections were incubated with ^18F-TA-Glyco-EE in the presence of E2 (72 µM). After an incubation time of 60 min, the sections were washed three times with incubation buffer, followed by a short dip in ice-cold distilled water. The slices were carefully dried in a stream of warm air and finally placed on a phosphor imager screen (Fuji Imaging Plate BAS-IP SR 2025 E) overnight prior to readout (30 µm resolution) using the HD-CR-35 Bio scanner (Elysia-Raytest, Straubenhardt, Germany). […] Regions of interest were analyzed from 3–4 tumor slices from the MCF-7, MDA-MB231 and T47D tumors, and mean values of the intensity per area were calculated.

[2] = Determination of logD7.4 (n-octanol/PBS); format: physicochemical; conditions: n-octanol/PBS pH 7.4; mean ± SD, three independent experiments
Method: For the determination of the octanol–water coefficient, an aliquot of the radiotracer was added to PBS (500 µL, pH 7.4) and n-octanol (500 µL) in an Eppendorf tube. The mixture was vortexed and subsequently centrifuged, each for 1 min. Three samples (each 100 µL) were taken from both the PBS and the n-octanol layer and measured using a γ-counter (Wallac Wizard, PerkinElmer, Waltham, MA, USA). The logD7.4 was expressed as log(cpmoctanol/cpmPBS) and reported as mean ± SD. The determination of logD7.4 was performed in three independent experiments, each performed in triplicate.

**Q.** Which results are given for `CC(=O)OC1C(C[18F])OC(n2cc(C3(O)CCC4C5CCc6cc(O)ccc6C5CCC43C)nn2)C(OC(C)=O)C1OC(C)=O` (stereo not shown) [^18F-TA-Glyco-EE]?
**A.** Uptake in MDA-MB-231 tumors ([1]; 30 min p.i.): 0.9 %ID/g; Uptake in T47D tumors ([1]; 30 min p.i.): 1.0 %ID/g; Uptake in intestine ([1]; 30 min p.i.): 10 %ID/g; Uptake in liver ([1]; 30 min p.i.): 13 %ID/g; Tumor uptake ER+ T47D versus ER- MDA-MB-231 ([1]; 60 min and 90 min p.i., multiple t-test): statistically significant differences; Uptake in liver ([1]; 90 min p.i.): 1.2 %ID/g; Uptake in blood and all other non-target organs ([1]; all time points (30, 60, 90 min p.i.)): low; Uptake in T47D or MDA-MB-231 tumors ([1]; as summarised in the discussion): < 1 %ID/g; Uptake in liver and intestine ([1]; decreasing over 90 min): less than 3 %ID/g; Cellular uptake relative to ^18F-PEG-EE and ^18F-Glyco-EE (ER+ MCF-7 cells; ER+ MCF-7 cells): 10 fold; Cellular uptake in MCF-7 cells (ER+ MCF-7 cells; after 60 min, 37 °C, absence of E2): 270 %/mg; Binding to T47D tumor sections (autoradiography) (ER+ T47D tumor slices): high specific binding; logD7.4 [2]: 2.3 ± 0.1
